This is an account of results in patent US11407742B2 (THE KITASATO INSTITUTE, priority 2017, dated 2022).

In brackets after ≈: the same amount, converted by molar mass.

The subject of series [1] is Mycobacterium bovis BCG Pasteur strain. Description: microbe, parasite or virus in culture. Type of series: cell-based. The conditions noted are these: Mycobacterium tuberculosis variant bovis BCG.
Series [2] concerns Mycobacterium avium JCM 15430 strain. Description: Antibacterial activity against Mycobacterium avium complex, broth microdilution MIC (Test II-1). The class given is cell-based. The conditions noted are these: JCM15430, 37° C. for 120 hours, MTT, minimum concentration inhibiting growth of 90% or more. The method, then: (§1) 6 mL of 7H9 liquid medium (Middlebrook 7H9 broth 0.5% (DIFCO), bovine serum albumin 5.0% (SIGMA), glucose 2.0% (Wako Pure Chemical Industries, Ltd.) and sodium chloride 0.85% (Kanto Chemical Co., Inc.)) containing 0.05% Tween80 (Wako Pure Chemical Industries, Ltd.) was put in a cell culturing flask T25 (Corning incorporated). To this flask was added 200 μL of a glycerol stored bacterial suspension of Mycobacterium avium (JCM15430, given by Institute of Physical and Chemical Research, Microbe Division) or 120 μL of a glycerol stored bacterial suspension of Mycobacterium intracellulare (JCM6384, given by Institute of Physical and Chemical Research, Microbe Division). The Mycobacterium avium was statically cultured at 37° C. for 96 hours, and the Mycobacterium intracellulare was statically cultured at 37° C. for 72 hours. The cultured bacterial suspension was diluted with the medium by 200 times for the Mycobacterium avium and by 600 times for the Mycobacterium intracellulare to prepare bacterial suspensions for inoculation (equivalent to 4×10^6 CFU/mL). The minimum inhibitory concentration (MIC) of each bacterial suspension was measured by carrying out a broth microdilution method in accordance with the following procedure. To a 96-well microplate, a two-stage dilution series (a final concentration of 0.001 to 50 μg/mL) of a test compound sample prepared beforehand was dispensed at 5 μL/well. Next, the bacterial suspension for inoculation was added at 95 μL/well. The culture solution in the well was mixed, and the resulting mixture cultured at 37° C. for 120 hours. After the culture, MTT reagent (SIGMA) was added at 5 μL/well, and the resulting mixture was cultured at 37° C. for 16 hours. Thereafter, a cytolytic buffer (dimethylformamide: 40.0% (nacalai tesque), acetic acid: 2.0% (Kanto Chemical Co., Inc.), sodium dodecyl sulfate: 20.0% (Wako Pure Chemical Industries, Ltd.), hydrochloric acid: 0.03 N (Kanto Chemical Co., Inc.)) at 95 μL/well, and the resulting mixture was shaken for 1 hour. For the culture solution in each well, the absorbance was measured at 570 nm, the growth inhibition rate was then calculated, and the minimum concentration indicative of inhibition of growth of 90% or more of bacteria was defined as a MIC value. Compounds 40551-F, -D, -G, -H, -I, -K and -L were used as test compounds, and ethambutol which is a known drug that is used for treatment of MAC infection was used as a comparative compound.
On the technique in general: In broth dilution the organism is exposed to a series of concentrations in liquid medium.

The subject of series [3] is Mycobacterium intracellulare JCM 6384 strain. The series is described as above. The class given is cell-based. The conditions noted are these: JCM6384, 37° C. for 120 hours, MTT, minimum concentration inhibiting growth of 90% or more. The method, then:
as §1

A further series is described as follows: Solubility in solvent. Type of series: physicochemical. The conditions noted are these: organic solvents (methanol, DMSO).
Series [4] deals with Mycobacterium smegmatis MC^2155 strain. Description: Antibacterial activity against other nontuberculous mycobacteria, broth microdilution MIC (Test II-2). The class given is cell-based. The conditions noted are these: Mycolicibacterium smegmatis, 37° C. for 30 hours, growth observed with the naked eye. The method, then: as §1
A test against Mycobacterium smegmatis as other nontuberculous mycobacteria was conducted in accordance with the following procedure. 6 mL of 7H9 liquid medium containing 0.5% Tween80 (Wako Pure Chemical Industries, Ltd.) was put in a cell culturing flask T25 (Corning incorporated). In this flask, a glycelol stored bacterial suspension of Mycobacterium smegmatis (MC^2155, acquired from American Type Culture Collection) was inoculated with one platinum loop, and statically cultured at 37° C. for 30 hours. The cultured bacterial suspension was then diluted by 200 times with the medium to prepare a bacterial suspension for inoculation (equivalent to 8×10^6 CFU/mL). The MIC of the bacterial suspension was measured by carrying out a broth microdilution method in the same procedure as in Test II-1. The bacterial suspension was cultured under conditions of 37° C. for 30 hours, and the MIC value was determined by observing growth of bacteria with the naked eye.

Regarding `CC(C)C(=O)Nc1ccc(C(=O)Nc2ccn(C3CCC(OC4OC(C)C(N(C)C)C(O)C4O)C(C)O3)c(=O)n2)cc1` (stereo not drawn) [Compound 40551-D], the MIC in series [1] is 6.25 µg/mL (≈ 10.6 µM); in series [2] it was 12.5 µg/mL (≈ 21.3 µM); in series [3], 12.5 µg/mL (≈ 21.3 µM). For the same molecule, the Solubility in solvent result in the series “Solubility in solvent” is recorded as “soluble in methanol, DMSO, etc”.
With `CC(C)=CC(=O)Nc1ccn(C2CCC(OC3OC(C)C(N(C)C)C(O)C3O)C(C)O2)c(=O)n1` (stereo not drawn) [Compound 40551-F, N-(1-(5-((5-(dimethylamino)-3,4-dihydroxy-6-methyltetrahydro-2H-pyran-2-yl)oxy)-6-methyltetrahydro-2H-pyran-2-yl)-2-oxo-1,2-dihydropyrimidine-4-yl)-3-methylbuta-2-enamide], the MIC in series [4] came out at 3.12 µg/mL (≈ 6.49 µM); in series [1], 1.56 µg/mL (≈ 3.25 µM); in series [2], 0.78 µg/mL (≈ 1.62 µM); in series [3], 0.39 µg/mL (≈ 0.812 µM). Also, the Solubility in solvent entry in “Solubility in solvent” is reported as “soluble in methanol, DMSO, etc”.
Regarding `CCC(C)/C=C/C(=O)Nc1ccn(C2CCC(OC3OC(C)C(N(C)C)C(O)C3O)C(C)O2)c(=O)n1` (stereo not drawn) [Compound 40551-G], the MIC is 12.5 µg/mL (≈ 24.6 µM) in series [4], 6.25 µg/mL (≈ 12.3 µM) in series [1], 6.25 µg/mL (≈ 12.3 µM) in series [2] and 3.12 µg/mL (≈ 6.13 µM) in series [3]. In “Solubility in solvent”, the Solubility in solvent result is recorded as “soluble in methanol, DMSO, etc”.
Consider `CC1OC(n2ccc(NC(=O)c3ccc(N4C(=O)C(C)(CO)NC4(C)C)cc3)nc2=O)CCC1OC1OC(C)C(N(C)C)C(O)C1O` (stereo not drawn) [Compound 40551-H], for which the MIC stood at 1.56 µg/mL (≈ 2.37 µM) in series [4], 0.39 µg/mL (≈ 0.592 µM) in series [1], 12.5 µg/mL (≈ 19 µM) in series [2] and 1.56 µg/mL (≈ 2.37 µM) in series [3]. For the same molecule, the Solubility in solvent entry in “Solubility in solvent” is “soluble in methanol, DMSO, etc”.
With `C/C=C(\C)C(=O)Nc1ccn(C2CCC(OC3OC(C)C(N(C)C)C(O)C3O)C(C)O2)c(=O)n1` (stereo not drawn) [Compound 40551-I, (E)-N-(1-(5-((5-(dimethylamino)-3,4-dihydroxy-6-methyltetrahydro-2H-pyran-2-yl)oxy)-6-methyltetrahydro-2H-pyran-2-yl)-2-oxo-1,2-dihydropyrimidin-4-yl)-2-methylbuta-2-enamide], the MIC in series [1] is 6.25 µg/mL (≈ 13 µM); in series [3], 25 µg/mL (≈ 52 µM). Further, the Solubility in solvent result in “Solubility in solvent” was “soluble in methanol, DMSO, etc”.
`CC(C)CC(=O)Nc1ccn(C2CCC(OC3OC(C)C(N(C)C)C(O)C3O)C(C)O2)c(=O)n1` (stereo not drawn) [Compound 40551-K]: the MIC in series [4] stood at 25 µg/mL (≈ 51.8 µM); in series [1], 6.25 µg/mL (≈ 13 µM); in series [2], 25 µg/mL (≈ 51.8 µM); in series [3], 6.25 µg/mL (≈ 13 µM). The Solubility in solvent entry in the series “Solubility in solvent” was “soluble in methanol, DMSO, etc”.
Take `CC(C)/C=C/C(=O)Nc1ccn(C2CCC(OC3OC(C)C(N(C)C)C(O)C3O)C(C)O2)c(=O)n1` (stereo not drawn) [Compound 40551-L, (E)-N-(1-(5-((5-(dimethylamino)-3,4-dihydroxy-6-methyltetrahydro-2H-pyran-2-yl)oxy)-6-methyltetrahydro-2H-pyran-2-yl)-2-oxo-1,2-dihydropyrimidin-4-yl)-4-methylpenta-2-enamide]: the MIC was determined as 3.12 µg/mL (≈ 6.31 µM) in series [4], 1.56 µg/mL (≈ 3.15 µM) in series [1], 3.12 µg/mL (≈ 6.31 µM) in series [2] and 0.78 µg/mL (≈ 1.58 µM) in series [3]. In addition, the Solubility in solvent entry in “Solubility in solvent” is recorded as “soluble in methanol, DMSO, etc”.
On to `CC[C@@H](CO)NCCN[C@@H](CC)CO` [Ethambutol, reference compound], for which the MIC in series [4] stood at 0.78 µg/mL (≈ 3.82 µM); in series [1], 1.56 µg/mL (≈ 7.64 µM); in series [2] it was 12.5 µg/mL (≈ 61.2 µM); in series [3], 3.12 µg/mL (≈ 15.3 µM).
